Columns and labels:
FMDV [1] = settings: cited from earlier work
FMDV [2] = settings: cited from earlier work; remark: listed apart in the source
FMDV 3Cpro [3] = biological target: T1, FMDV 3Cpro (Foot-and-mouth disease virus A, UniProt A0A097I315); assay: cell-based; parameters: species or system FMDV A/IND287/96 strain; settings: Cell-based assay (EC50)
SARS-CoV-2 = settings: read-out: EC50 against SARS-CoV-2; cited from earlier work
FMDV 3Cpro [4] = biological target: T1, FMDV 3Cpro; assay: biochemical; parameters: species or system FMDV A/IND287/96 strain (serotype A); settings: FRET assay (IC50)
in vitro = settings: human
FMDV [5] = settings: read-out: in vitro potency against FMDV (EC50); cited from earlier work
FMDV [6] = settings: pig, in vivo; cited from earlier work
FMDV [7] = settings: mouse, in vivo; cited from earlier work

| SMILES | EC50 (FMDV 3Cpro [3]) | IC50 (FMDV 3Cpro [4]) | CC50 (in vitro) | also measured |
| --- | --- | --- | --- | --- |
| Oc1ccccc1-c1nc2c3ccccc3c3ccccc3c2[nH]1 [NSC332670] | – | – | – | replication of FMDV in cell culture via inhibiting 3Cpro (FMDV [1]): inhibited the replication of FMDV in cell culture |
| NC(=O)c1ncn([C@@H]2O[C@H](CO)[C@@H](O)[C@H]2O)n1 [ribavirin] | – | – | – | in vitro activity against FMDV (EC50) (FMDV [2]): low micromolar to millimolar range |
| O=c1c(O)c(-c2ccc(O)c(O)c2)oc2cc(O)cc(O)c12 [quercetin] | – | – | – | replication of FMDV in cell culture via inhibiting 3Cpro (FMDV [1]): inhibited the replication of FMDV in cell culture |
| CC(C)C[C@H](NC(=O)OCC(C)(C)Sc1ccccc1)C(=O)N[C@@H](C[C@@H]1CCNC1=O)C(O)S(=O)(=O)O (stereo partly drawn) [Compound D1d] | 1500 ± 430 nM | 1010 ± 420 nM | > 50000 nM | EC50 (SARS-CoV-2): 10 nM |
| COc1ccc(-c2cc(=O)c3c(O)cc(O)c(-c4cc(-c5cc(=O)c6c(O)cc(O)cc6o5)ccc4OC)c3o2)cc1 [isoginkgetin] | – | – | – | replication of FMDV in cell culture via inhibiting 3Cpro (FMDV [1]): inhibited the replication of FMDV in cell culture |
| CC(C)C[C@H](NC(=O)OCC(C)(C)Sc1ccccc1)C(=O)N[C@H](C=O)C[C@@H]1CCNC1=O [Compound D1c] | 1850 ± 350 nM | 1200 ± 710 nM | > 50000 nM | EC50 (SARS-CoV-2): 12 nM |
| [2H]C([2H])(OC(=O)N[C@@H](CC(C)C)C(=O)N[C@@H](C[C@@H]1CCNC1=O)C(O)S(=O)(=O)[O-])C(C)(C)Oc1cccc(Cl)c1.[Na+] (stereo partly drawn) [Compound D14d] | 4810 ± 3060 nM | 650 ± 70 nM | > 50000 nM | – |
| [2H]C([2H])(OC(=O)N[C@@H](CC(C)C)C(=O)N[C@H](C=O)C[C@@H]1CCNC1=O)C(C)(C)Sc1ccccc1 [Compound D2c] | 2500 ± 420 nM | 1520 ± 20 nM | > 50000 nM | – |
| CC(C)C[C@H](NC(=O)OC[C@@H]1C[C@H]1CC1CCCCC1)C(=O)N[C@H](C=O)C[C@H]1CCNC1=O [Compound C16c] | 900 ± 60 nM | 360 ± 90 nM | > 50000 nM | – |
| CC(C)C[C@H](NC(=O)OCc1ccccc1)C(=O)N[C@H](C=O)C[C@@H]1CCNC1=O [GC373] | 6600 ± 200 nM | 2300 ± 70 nM | > 50000 nM | – |
| [2H]C([2H])(OC(=O)N[C@@H](CC(C)C)C(=O)N[C@@H](C[C@@H]1CCNC1=O)C(O)S(=O)(=O)[O-])C(C)(C)Sc1ccccc1.[Na+] (stereo partly drawn) [Compound D2d] | 2910 ± 430 nM | 1150 ± 70 nM | > 50000 nM | – |
| CC(C)C[C@H](NC(=O)OCCSc1ccccc1)C(=O)N[C@H](C=O)C[C@@H]1CCNC1=O [Compound D8c] | 1750 ± 210 nM | 1350 ± 350 nM | > 50000 nM | – |
| CC(C)C[C@H](NC(=O)OCC(C)(C)Oc1ccc(F)cc1)C(=O)N[C@H](C=O)C[C@@H]1CCNC1=O [Compound D15c] | 5250 ± 640 nM | 450 ± 70 nM | > 50000 nM | – |
| CC(C)C[C@H](NC(=O)OC[C@@H]1C[C@H]1c1ccccc1)C(=O)N[C@H](C=O)C[C@H]1CCNC1=O [Compound C1c] | 3150 ± 350 nM | 1000 ± 280 nM | > 50000 nM | – |
| COc1ccccc1[C@@H]1C[C@@H]1COC(=O)N[C@@H](CC(C)C)C(=O)N[C@@H](C[C@H]1CCNC1=O)C(O)S(=O)(=O)O (stereo partly drawn) [Compound C12d] | 1250 ± 70 nM | 510 ± 60 nM | > 50000 nM | – |
| CC(C)C[C@H](NC(=O)OCc1ccccc1)C(=O)N[C@@H](C[C@@H]1CCNC1=O)C(=O)c1ncco1 [Compound E8a] | 8200 ± 90 nM | 3400 ± 80 nM | > 50000 nM | – |
| CC(C)C[C@H](NC(=O)OC[C@@H]1C[C@H]1Cc1ccccc1)C(=O)N[C@H](C=O)C[C@H]1CCNC1=O [Compound C3c] | 2740 ± 2140 nM | 690 ± 130 nM | > 50000 nM | – |
| CCOC(=O)/C=C/[C@H](C[C@@H]1CCNC1=O)NC(=O)[C@@H](CC(=O)[C@@H](NC(=O)c1cc(C)on1)C(C)C)Cc1ccc(F)cc1 [AG7088, Rupintrivir, reference compound] | 10300 ± 200 nM | 4300 ± 200 nM | > 50000 nM | EC50 (FMDV [5]): 10000 to 20000 nM |
| Cc1cc(CCCOc2c(C)cc(-c3noc(C(F)(F)F)n3)cc2C)on1 [pleconaril] | – | – | – | in vitro activity against FMDV (EC50) (FMDV [2]): low micromolar to millimolar range |
| CC(C)C[C@H](NC(=O)OCC(C)(C)Oc1cccc(Cl)c1)C(=O)N[C@H](C=O)C[C@@H]1CCNC1=O [Compound D13c] | 5340 ± 1190 nM | 670 ± 80 nM | > 50000 nM | – |
| CC(C)C[C@H](NC(=O)OCCSc1ccccc1)C(=O)N[C@@H](C[C@@H]1CCNC1=O)C(O)S(=O)(=O)O (stereo partly drawn) [Compound D8d] | 1950 ± 220 nM | 1030 ± 240 nM | > 50000 nM | – |
| CCC[C@@H]1C[C@@H]1COC(=O)N[C@@H](CC(C)C)C(=O)N[C@H](C=O)C[C@H]1CCNC1=O [Compound C14c] | 7050 ± 780 nM | 630 ± 100 nM | > 50000 nM | – |

| SMILES | EC50 (FMDV 3Cpro [3]) | IC50 (FMDV 3Cpro [4]) | CC50 (in vitro) | also measured |
| --- | --- | --- | --- | --- |
| CC(C)C[C@H](NC(=O)OC[C@H]1[C@H](Cc2ccccc2)C1(F)F)C(=O)N[C@@H](C[C@H]1CCNC1=O)C(O)S(=O)(=O)O (stereo partly drawn) [Compound C4d] | 3650 ± 630 nM | 1350 ± 350 nM | > 50000 nM | – |
| COc1ccccc1[C@@H]1C[C@@H]1COC(=O)N[C@@H](CC(C)C)C(=O)N[C@H](C=O)C[C@H]1CCNC1=O [Compound C12c] | 880 ± 250 nM | 500 ± 140 nM | > 50000 nM | – |
| CC(C)C[C@H](NC(=O)OCC(C)(C)Oc1cccc(F)c1)C(=O)N[C@H](C=O)C[C@@H]1CCNC1=O [Compound D16c] | 4900 ± 370 nM | 780 ± 30 nM | > 50000 nM | – |
| CC(C)C[C@H](NC(=O)OC[C@@H]1C[C@H]1c1cccc(Cl)c1)C(=O)N[C@H](C=O)C[C@H]1CCNC1=O [Compound C6c] | 3300 ± 710 nM | 800 ± 50 nM | > 50000 nM | – |
| CC(C)C[C@H](NC(=O)OCC(C)(C)Sc1cccc(Cl)c1)C(=O)N[C@H](C=O)C[C@@H]1CCNC1=O [Compound D7c] | 1050 ± 210 nM | 1500 ± 280 nM | > 50000 nM | – |
| CC(C)C[C@H](NC(=O)OC[C@@H]1C[C@H]1c1ccc(F)cc1)C(=O)N[C@@H](C[C@H]1CCNC1=O)C(O)S(=O)(=O)O (stereo partly drawn) [Compound C7d] | 2150 ± 350 nM | 750 ± 70 nM | > 50000 nM | – |
| CC(C)C[C@H](NC(=O)OCC(C)(C)Oc1ccc(Cl)cc1)C(=O)N[C@@H](C[C@@H]1CCNC1=O)C(O)S(=O)(=O)O (stereo partly drawn) [Compound D11d] | 980 ± 1110 nM | 490 ± 50 nM | > 50000 nM | – |
| COc1ccccc1[C@@H]1C[C@H]1COC(=O)N[C@@H](CC(C)C)C(=O)N[C@H](C=O)C[C@H]1CCNC1=O [Compound C11c] | 1080 ± 50 nM | 950 ± 210 nM | > 50000 nM | – |
| NC(=O)c1ncc[nH]c1=O [Compound T-1105] | – | – | – | viremia in FMDV-challenged pigs (FMDV [6]): reduced or prevented viremia |
| [2H]C([2H])(OC(=O)N[C@@H](CC(C)C)C(=O)N[C@H](C=O)C[C@@H]1CCNC1=O)C(C)(C)Oc1ccc(Cl)cc1 [Compound D12c] | 350 ± 100 nM | 140 ± 20 nM | > 50000 nM | – |
| CCC[C@@H]1C[C@@H]1COC(=O)N[C@@H](CC(C)C)C(=O)N[C@@H](C[C@H]1CCNC1=O)C(O)S(=O)(=O)O (stereo partly drawn) [Compound C14d] | 6300 ± 850 nM | 1050 ± 640 nM | > 50000 nM | – |
| N#Cc1cc(-c2ccccc2)[nH]c1-c1nccc2ccccc12 [NSC116640] | – | – | – | replication of FMDV in cell culture via inhibiting 3Cpro (FMDV [1]): inhibited the replication of FMDV in cell culture |
| CC(C)C[C@H](NC(=O)[C@H](Cc1cccc2ccccc12)NC(=O)OCc1ccccc1)C(=O)N[C@H](C=O)C[C@@H]1CCNC1=O [Compound E1] | 110 ± 50 nM | 50 ± 80 nM | > 50000 nM | – |
| CC(C)C[C@H](NC(=O)OCc1ccccc1)C(=O)N[C@@H](C[C@@H]1CCNC1=O)C(=O)C(=O)NC(C)(C)C [Compound E6g] | 5800 ± 300 nM | 1500 ± 100 nM | > 50000 nM | – |
| CC(C)C[C@H](NC(=O)OCC(C)(C)Sc1cccc(F)c1)C(=O)N[C@H](C=O)C[C@@H]1CCNC1=O [Compound D5c] | 1000 ± 280 nM | 3150 ± 490 nM | > 50000 nM | – |
| CC(C)C[C@H](NC(=O)OCC(C)(C)Sc1ccccc1)C(=O)N[C@@H](C[C@@H]1CCNC1=O)C(=O)C(=O)NC1CC1 [Compound D1e] | 5000 ± 280 nM | 3750 ± 70 nM | > 50000 nM | – |
| CCCCOc1nc(N)c2c(n1)N(Cc1cccc(CN3CCCC3)c1)CC(=O)N2 [GS-9620] | – | – | – | survival rate in FMDV-vaccinated and un-vaccinated mice (FMDV [7]): enhanced survival rate |
| CC(C)C[C@H](NC(=O)OC[C@@H]1C[C@H]1CC1CCCCC1)C(=O)N[C@@H](C[C@H]1CCNC1=O)C(O)S(=O)(=O)O (stereo partly drawn) [Compound C16d] | 1210 ± 480 nM | 330 ± 40 nM | > 50000 nM | – |
| COc1cccc([C@@H]2C[C@H]2COC(=O)N[C@@H](CC(C)C)C(=O)N[C@@H](C[C@H]2CCNC2=O)C(O)S(=O)(=O)O)c1 (stereo partly drawn) [Compound C9d] | 2050 ± 640 nM | 840 ± 60 nM | > 50000 nM | – |
| CC(C)C[C@H](NC(=O)OC[C@H]1[C@H](c2ccccc2)C1(F)F)C(=O)N[C@@H](C[C@H]1CCNC1=O)C(O)S(=O)(=O)O (stereo partly drawn) [Compound C2d] | 1450 ± 210 nM | 1100 ± 570 nM | > 50000 nM | – |
| COc1ccccc1[C@@H]1C[C@H]1COC(=O)N[C@@H](CC(C)C)C(=O)N[C@@H](C[C@H]1CCNC1=O)C(O)S(=O)(=O)O (stereo partly drawn) [Compound C11d] | 1020 ± 170 nM | 450 ± 130 nM | > 50000 nM | – |
| O=c1cc(-c2ccc(O)c(O)c2)oc2cc(O)cc(O)c12 [luteolin] | – | – | – | replication of FMDV in cell culture via inhibiting 3Cpro (FMDV [1]): inhibited the replication of FMDV in cell culture |

Source: article PMC10986521 (Microbiology Spectrum, 2024)
